Test results taken from ChEMBL document CHEMBL1201862, “PubChem BioAssay data set” (2004).
Several values for one entry are separate records, joined by “and”; a condition that tells them apart may be missing. Identical values can stand only once.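 48-hour exposure; five concentrations; linearly interpolated endpoints. GI50 = concentration required for 50% inhibition of growth.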 Activity calls are given as the source filed them. Cut-off read from the data, not from the text of the source: active = GI50 up to about 1.1 µM and inactive = higher.

Columns and labels:
Assay in all cases: DTP human tumour cell line panel, 48 h
HCT-15 = tested on: HCT-15
K562 = tested on: K562
MDA-N = tested on: MDA-N
HOP-62 = tested on: HOP-62
CCRF-CEM = tested on: CCRF-CEM
MDA-MB-435 = tested on: MDA-MB-435
SK-MEL-28 = tested on: SK-MEL-28
NCI-H522 = tested on: NCI-H522
OVCAR-4 = tested on: OVCAR-4
PC-3 = tested on: PC-3
MDA-MB-231 = tested on: MDA-MB-231
HOP-92 = tested on: HOP-92
OVCAR-3 = tested on: OVCAR-3
NCI-H460 = tested on: NCI-H460
786-0 = tested on: 786-0
HCC 2998 = tested on: HCC 2998
NCI-H23 = tested on: NCI-H23
T47D = tested on: T47D
COLO 205 = tested on: COLO 205
SN12C = tested on: SN12C

Compound | GI50 (HCT-15) [µM] | GI50 (K562) | GI50 (MDA-N) | GI50 (HOP-62) | GI50 (CCRF-CEM) | GI50 (MDA-MB-435) | GI50 (SK-MEL-28) | GI50 (NCI-H522) | GI50 (OVCAR-4) | GI50 (PC-3) | GI50 (MDA-MB-231) | GI50 (HOP-92) | GI50 (OVCAR-3) | GI50 (NCI-H460) | GI50 (786-0) | GI50 (HCC 2998) | GI50 (NCI-H23) | GI50 (T47D) | GI50 (COLO 205) | GI50 (SN12C)
CCN(CC)c1ccc2cc(-c3nnc(-c4ccccc4)o3)c(=O)oc2c1 | 6.35 | 1.4 µM (inactive) | 48.5 µM (inactive) | 17.6 µM (inactive) | 3.89 µM (inactive) | > 48.6 µM (inactive) | > 85.3 µM (inactive) | 28.8 µM (inactive) | 39.4 µM (inactive) | 30.8 µM (inactive) | 22.9 µM (inactive) | > 100 µM (inactive) | 7.05 µM (inactive) | 4.93 µM (inactive) | 17 µM (inactive) | 2.2 µM (inactive) | 56.9 µM (inactive) | 23.4 µM (inactive) | 20.3 µM (inactive) | 31.4 µM (inactive)
O=C(CC(=O)Nc1ccccc1Cl)NNC(c1cc(/N=N/c2ccc(Br)cc2)ccc1O)P(O)O (stereo not given) | 0.594 | 2.4 µM (inactive) | 3.2 µM (inactive) | 3.88 µM (inactive) | 0.451 µM (active) | 2.04 µM (inactive) | 7.43 µM (inactive) | 2.97 µM (inactive) | 2.34 µM (inactive) | 0.521 µM (active) | 3.06 µM (inactive) | 5.98 µM (inactive) | 0.348 µM (active) | 0.537 µM (active) | 0.565 µM (active) | 3.8 µM (inactive) | 2.53 µM (inactive) | 2.12 µM (inactive) | 3.89 µM (inactive) | 1.6 µM (inactive)
COc1cc(I)c2c3c1OC1C34CCN(C)C(C2)C4=CC(I)C1(OC)OC (stereo not given) | 25.5 | 20.7 µM (inactive) | 19.9 µM (inactive) | 19.1 µM (inactive) | 5.36 µM (inactive) | 13.2 µM (inactive) | 18.2 µM (inactive) | 21.2 µM (inactive) | 15 µM (inactive) | 24.4 µM (inactive) | 20.1 µM (inactive) | 13.1 µM (inactive) | 19.2 µM (inactive) | 19.1 µM (inactive) | 20.3 µM (inactive) | 15.3 µM (inactive) | 24.5 µM (inactive) | 14.6 µM (inactive) | 19.4 µM (inactive) | 16.3 µM (inactive)
c1ccc(-c2c(-c3[nH]c4ccccc4c3-c3ccccc3)[nH]c3ccccc23)cc1 | 4.32 | 4.03 µM (inactive) | 2.74 µM (inactive) | 2.55 µM (inactive) | 3.4 µM (inactive) | 3.44 µM (inactive) | 11.4 µM (inactive) | 3.18 µM (inactive) | 2.17 µM (inactive) | 3.6 µM (inactive) | 3.4 µM (inactive) | 3.21 µM (inactive) | 2.3 µM (inactive) | 2.95 µM (inactive) | 2.07 µM (inactive) | 1.82 µM (inactive) | 2.63 µM (inactive) | 2.53 µM (inactive) | 1.91 µM (inactive) | 1.91 µM (inactive)
O=P1(N(CCCl)CCCl)Oc2ccc(Cl)cc2C(C(Cl)(Cl)Cl)c2cc(Cl)ccc2O1 (stereo not given) | 9.57 | 3.72 µM (inactive) | 16.2 µM (inactive) | 11.8 µM (inactive) | 5.37 µM (inactive) | 18.5 µM (inactive) | 35.2 µM (inactive) | 8.59 µM (inactive) | 20.7 µM (inactive) | 4.38 µM (inactive) | 18.6 µM (inactive) | 3.9 µM (inactive) | 11.4 µM (inactive) | 8.28 µM (inactive) | 12.4 µM (inactive) | 10.9 µM (inactive) | 12.8 µM (inactive) | 20 µM (inactive) | 12.9 µM (inactive) | 16.6 µM (inactive)
CCOP(=O)(CC1OC(CO)C(O)C1O)OCC (stereo not given) | > 100 | > 100 µM (inactive) | > 100 µM (inactive) | > 100 µM (inactive) | > 100 µM (inactive) | > 100 µM (inactive) | > 100 µM (inactive) | > 100 µM (inactive) | > 100 µM (inactive) | > 100 µM (inactive) | > 100 µM (inactive) | > 100 µM (inactive) | > 100 µM (inactive) | > 100 µM (inactive) | > 100 µM (inactive) | > 100 µM (inactive) | > 46.7 µM (inactive) | > 100 µM (inactive) | > 100 µM (inactive) | > 100 µM (inactive)
COc1ccc2c(-c3ccc(O)cc3)c(Oc3ccc(Cl)cc3)c(=O)oc2c1 | 4.66 | 7.21 µM (inactive) | 6.34 µM (inactive) | 12.9 µM (inactive) | 6.28 µM (inactive) | 7.43 µM (inactive) | 7.71 µM (inactive) | 2.55 µM (inactive) | 5.77 µM (inactive) | 7.69 µM (inactive) | 5.13 µM (inactive) | 7.87 µM (inactive) | 3.57 µM (inactive) | 5.2 µM (inactive) | 7.85 µM (inactive) | 10.8 µM (inactive) | 2.79 µM (inactive) | 5.26 µM (inactive) | 6.08 µM (inactive) | 4.6 µM (inactive)
OC(C/C=N/N=C/CC(O)(C(F)(F)Cl)C(F)(F)Cl)(C(F)(F)Cl)C(F)(F)Cl | > 10 | > 10 µM (inactive) | > 10 µM (inactive) | > 10 µM (inactive) | > 10 µM (inactive) | > 10 µM (inactive) | > 10 µM (inactive) | > 10 µM (inactive) | > 10 µM (inactive) | > 10 µM (inactive) | > 10 µM (inactive) | 7.19 µM (inactive) | > 10 µM (inactive) | > 10 µM (inactive) | > 10 µM (inactive) | > 10 µM (inactive) | > 10 µM (inactive) | > 10 µM (inactive) | > 10 µM (inactive) | > 10 µM (inactive)
COc1ccc(Nc2nc3ccccc3nc2C(=O)O)cc1 | 36.1 | 63.4 µM (inactive) | 92.9 µM (inactive) | > 100 µM (inactive) | 44 µM (inactive) | > 100 µM (inactive) | 68.4 µM (inactive) | 92 µM (inactive) | > 100 µM (inactive) | > 100 µM (inactive) | > 100 µM (inactive) | > 100 µM (inactive) | 65.9 µM (inactive) | 23.6 µM (inactive) | 49.1 µM (inactive) | 3.46 µM (inactive) | 66.7 µM (inactive) | 53.6 µM (inactive) | 37.7 µM (inactive) | 80.2 µM (inactive)
COc1ccc(Oc2ccc3cc4c(cc3c2O)OCO4)c2cc(C)oc12 | 22.1 | 14.6 µM (inactive) | 29.6 µM (inactive) | 41.1 µM (inactive) | 21.7 µM (inactive) | 22.3 µM (inactive) | 47.5 µM (inactive) | 20.9 µM (inactive) | 22.4 µM (inactive) | 24.8 µM (inactive) | 33.9 µM (inactive) | 25.2 µM (inactive) | 28.8 µM (inactive) | 21.5 µM (inactive) | 35.8 µM (inactive) | 23.2 µM (inactive) | 26.4 µM (inactive) | 12.3 µM (inactive) | 25.5 µM (inactive) | 29.6 µM (inactive)
O=C(O)c1ccccc1CC1Cc2ccc3c(c2C1=O)CCC3 (stereo not given) | > 100 | > 100 µM (inactive) | > 100 µM (inactive) | > 100 µM (inactive) | > 100 µM (inactive) | > 100 µM (inactive) | > 100 µM (inactive) | > 100 µM (inactive) | > 100 µM (inactive) | > 100 µM (inactive) | > 100 µM (inactive) | > 100 µM (inactive) | > 100 µM (inactive) | > 100 µM (inactive) | > 100 µM (inactive) | > 100 µM (inactive) | > 100 µM (inactive) | > 100 µM (inactive) | > 100 µM (inactive) | > 100 µM (inactive)
CC(=O)OC1CC2C(=O)CC1(C)C2(C)C (stereo not given) | > 100 | > 100 µM (inactive) and > 80.4 µM (inactive) | > 100 µM (inactive) | > 100 µM (inactive) | > 100 µM (inactive) | > 100 µM (inactive) | > 100 µM (inactive) | > 100 µM (inactive) | > 100 µM (inactive) | > 100 µM (inactive) | > 100 µM (inactive) | > 100 µM (inactive) | > 100 µM (inactive) | > 100 µM (inactive) | > 100 µM (inactive) | > 100 µM (inactive) | > 100 µM (inactive) | > 100 µM (inactive) | > 100 µM (inactive) | > 100 µM (inactive)
Nc1ccc(-c2nc3cc(F)ccc3s2)cc1 | 17.6 | > 100 µM (inactive) | > 100 µM (inactive) | 18.3 µM (inactive) | > 45.6 µM (inactive) | > 100 µM (inactive) | > 100 µM (inactive) | 53.5 µM (inactive) | > 36.7 µM (inactive) | 16.5 µM (inactive) | 22.5 µM (inactive) | 23.1 µM (inactive) | > 90.2 µM (inactive) | 7.98 µM (inactive) | > 85.3 µM (inactive) | 26.3 µM (inactive) | 1.43 µM (inactive) | 0.424 µM (active) | 61 µM (inactive) | > 100 µM (inactive)
O=C(NP(=O)(N1CC1)N1CC1)c1cc(I)ccc1I [DIIODBENZOTEPH] | 69.3 | 59 µM (inactive) | > 73.6 µM (inactive) | 19.1 µM (inactive) | 4.86 µM (inactive) | 32.3 µM (inactive) | > 95.3 µM (inactive) | 27.3 µM (inactive) | 77.3 µM (inactive) | > 67.3 µM (inactive) | > 100 µM (inactive) | 59.7 µM (inactive) | 36.6 µM (inactive) | 3.72 µM (inactive) | 21.9 µM (inactive) | > 67.9 µM (inactive) | 10.9 µM (inactive) | 22.9 µM (inactive) | > 91.4 µM (inactive) | 26.8 µM (inactive)
